Results published in PubChem BioAssay (NCI).
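Tested at 5 concentrations; 48 h exposure; 96-well plates; endpoints linearly interpolated, else capped at highest concentration. TGI: concentration producing complete growth inhibition.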

Tests used:
Test in all cases: NCI-60 cell line screen, 48 h
[1] = system: A498 renal
[2] = system: CCRF-CEM leukemia
[3] = system: HL-60(TB) leukemia
[4] = system: HOP-18 NSCLC
[5] = system: K-562 leukemia
[6] = system: MOLT-4 leukemia
[7] = system: OVCAR-5 ovarian
[8] = system: OVCAR-8 ovarian
[9] = system: RPMI-8226 leukemia
[10] = system: SF-539 CNS
[11] = system: SN12C renal
[12] = system: SNB-19 CNS
[13] = system: UO-31 renal
[14] = system: 786-0 renal
[15] = system: A549 NSCLC
[16] = system: ACHN renal
[17] = system: COLO 205 colon
[18] = system: DLD-1 colon
[19] = system: DMS 114 small cell lung
[20] = system: EKVX NSCLC
[21] = system: HCC-2998 colon
[22] = system: HCT-116 colon
[23] = system: HCT-15 colon
[24] = system: HOP-62 NSCLC
[25] = system: HT29 colon
[26] = system: IGROV1 ovarian
[27] = system: KM12 colon
[28] = system: KM20L2 colon
[29] = system: LOX IMVI melanoma
[30] = system: LXFL 529 NSCLC
[31] = system: M14 melanoma
[32] = system: M19-MEL melanoma
[33] = system: NCI-H226 lung
[34] = system: NCI-H23 lung
[35] = system: NCI-H460 lung
[36] = system: NCI-H522 lung
[37] = system: OVCAR-3 ovarian
[38] = system: OVCAR-4 ovarian
[39] = system: RXF 393 renal
[40] = system: SF-268 CNS
[41] = system: SF-295 CNS
[42] = system: SK-MEL-2 melanoma
[43] = system: SK-MEL-28 melanoma
[44] = system: SK-MEL-5 melanoma
[45] = system: SNB-75 CNS
[46] = system: SNB-78 CNS
[47] = system: SR leukemia
[48] = system: SW-620 colon
[49] = system: TK-10 renal
[50] = system: U251 CNS
[51] = system: UACC-62 melanoma
[52] = system: XF 498 CNS
[53] = system: CAKI-1 renal
[54] = system: DMS 273 small cell lung
[55] = system: HOP-92 NSCLC
[56] = system: MALME-3M melanoma
[57] = system: UACC-257 melanoma

Cc1c2cc[n+](COC(=O)c3ccccc3)cc2c(C)c2c1[nH]c1ccccc12
TGI [1]: 2.48 µM | TGI [2]: 2.91 µM | TGI [3]: 2.72 µM | TGI [4]: 1.93 µM | TGI [5]: 1.52 µM | TGI [6]: 1.59 µM | TGI [7]: 2.39 µM | TGI [8]: 2.11 µM | TGI [9]: 2.92 µM | TGI [10]: 1.48 µM | TGI [11]: 1.79 µM | TGI [12]: 52.6 µM | TGI [13]: 4.82 µM

Cc1cc(C)nc(NS(=O)(=O)c2ccc(Nc3c4ccccc4nc4c(C(=O)NCCN(C)C)ccc(Cl)c34)cc2)n1
TGI [14]: 14.7 µM | TGI [15]: 4.19 µM | TGI [16]: 8.97 µM | TGI [2]: 15.7 µM | TGI [17]: 2.64 µM | TGI [18]: 13.4 µM | TGI [19]: 3.94 µM | TGI [20]: 15.5 µM | TGI [21]: 26.7 µM | TGI [22]: 7.23 µM | TGI [23]: 10.1 µM | TGI [3]: 7.6 µM | TGI [24]: 10.2 µM | TGI [25]: 4.8 µM | TGI [26]: 11.7 µM | TGI [5]: 11.7 µM | TGI [27]: 12.5 µM | TGI [28]: 12 µM | TGI [29]: 2.25 µM | TGI [30]: 4.06 µM | TGI [31]: 10.6 µM | TGI [32]: 7.84 µM | TGI [33]: 2.77 µM | TGI [34]: 11.7 µM | TGI [35]: 2.7 µM | TGI [36]: 3.32 µM | TGI [37]: 23 µM | TGI [38]: 4.8 µM | TGI [7]: 14.9 µM | TGI [8]: 2.69 µM | TGI [39]: 6.31 µM | TGI [40]: 8.11 µM | TGI [41]: 5.91 µM | TGI [10]: 11.5 µM | TGI [42]: 12.1 µM | TGI [43]: 17.9 µM | TGI [44]: 15.2 µM | TGI [11]: 8.2 µM | TGI [12]: 6.08 µM | TGI [45]: 11 µM | TGI [46]: 35.5 µM | TGI [47]: 5.46 µM | TGI [48]: 9.04 µM | TGI [49]: 20.3 µM | TGI [50]: 10.4 µM | TGI [51]: 3.59 µM | TGI [13]: 4.62 µM | TGI [52]: 17.3 µM

CC(C)c1cc(C(C)C)c(S(=O)(=O)NN)c(C(C)C)c1
TGI [14]: > 100 µM | TGI [1]: > 100 µM | TGI [15]: > 100 µM | TGI [16]: > 100 µM | TGI [53]: > 100 µM | TGI [17]: > 100 µM | TGI [18]: > 100 µM | TGI [19]: > 100 µM | TGI [54]: > 100 µM | TGI [20]: > 100 µM | TGI [22]: > 100 µM | TGI [23]: > 100 µM | TGI [4]: > 100 µM | TGI [24]: > 100 µM | TGI [55]: > 100 µM | TGI [25]: > 100 µM | TGI [26]: > 100 µM | TGI [5]: > 100 µM | TGI [27]: > 100 µM | TGI [28]: > 100 µM | TGI [29]: > 100 µM | TGI [32]: > 100 µM | TGI [56]: > 100 µM | TGI [34]: > 100 µM | TGI [35]: > 100 µM | TGI [37]: > 100 µM | TGI [38]: > 100 µM | TGI [7]: > 100 µM | TGI [8]: > 100 µM | TGI [9]: > 100 µM | TGI [39]: > 100 µM | TGI [40]: > 100 µM | TGI [41]: > 100 µM | TGI [10]: > 100 µM | TGI [42]: > 100 µM | TGI [43]: > 100 µM | TGI [44]: > 100 µM | TGI [11]: > 100 µM | TGI [12]: > 100 µM | TGI [45]: > 100 µM | TGI [46]: > 100 µM | TGI [47]: > 100 µM | TGI [48]: > 100 µM | TGI [49]: > 100 µM | TGI [50]: > 100 µM | TGI [57]: > 100 µM | TGI [51]: > 100 µM
